Values joined by “and” are separate entries in the source; they are usually repeats but may differ in a detail not shown here. Equal entries are not always repeated.
Key:
[1] = type: physicochemical; settings: room temperature (about 25 °C); mother liquor having a relatively high impurity content
Source text: It has been determined that glyphosine and NMG are more soluble in PMIDA mother liquor than is PMIDA. […] Those solubility limits are higher than the impurity concentration typically encountered in the prior art processes, thus it is believed that it is unlikely that impurity partitioning to the PMIDA wetcake results from solubility considerations such as impurities precipitating from solution onto the forming PMIDA crystal.

[2] = Equilibrium PMIDA concentration in PM reactor mother liquor (interrupted feed experiments); type: physicochemical; settings: for Equilibrium PMIDA in PM mother liquor (wt %): 60:40 DSIDA split
Method: PMIDA solubility limits change throughout the PM reaction making supersaturation prediction problematic. Several laboratory experiments were performed at 105° C. using a 60:40 DSIDA split between the hydrolyzer and PM reactor in order to evaluate supersaturation limits during seeding and the initial stages of the crystallization event. The PM feed amounts were altered such that only a portion of the typical feed amounts were used in order to simulate various stages of the PM reaction step. […] It is believed, without being bound to any particular theory, that as NaCl is produced during the PM reaction, and HCl is consumed, PMIDA solubility is suppressed. Table B presents PMIDA solubility in the PM reactor mother liquor at varying amounts of formalin addition.
Several laboratory experiments using an interrupted feed were performed to evaluate supersaturation limits during seeding and the initial stages of the crystallization event. The PM feed amounts were altered such that only a portion of the typical feed amounts were used in order to simulate various stages of the PM reaction step. The first two experiments were designed such that only about 40% of the typical feed amounts were used in order to mimic reactor conditions that occurred during seed addition of early-seeding experiments. These experiments utilized a 60:40 DSIDA split between the hydrolyzer and PM reactor, 43% formalin, and DSIDA1. In the first experiment, a spike of about 0.3% of NMG on a final batch weight basis was added to the reactor following the hydrolysis step. Following the PM reaction, about 6.4% of seed on a final batch weight basis were added after the feeds were completed and a sample was removed. Post-seed samples were removed at 20, 40 and 100 minutes following the seed addition to determine the rate at which supersaturation would be relieved. All of the samples were taken at approximately 105° C. As the temperature decreased, additional samples were taken at 75° C. and 50° C. The first experiment data are in Table 9A below.
In the second experiment, no NMG was added after the hydrolysis step, and seed crystals were not added. Post-feed samples were removed at 0, 60 and 240 minutes following completion of the feed addition. The second experiment data are in Table 9B below.
A third experiment was designed such that only about 70% of the typical feed amounts were used in order to simulate PM reactor conditions when the PMIDA crystallization event typically takes place. The experiment utilized a 60:40 DSIDA split between the hydrolyzer and PM reactor, 37% formalin, and DSIDA1. No NMG was added after the hydrolysis step, and seed crystals were not added. Following the completion of the feeds, the reactor contents were allowed to mix at 105° C. for approximately 21 hours before sampling.
The fourth experiment was designed such that 100% of the typical feed amounts were added to the reactor in order to determine the equilibrium PMIDA solubility of the mother liquor after all of the feeds had been added. This experiment utilized a 60:40 DSIDA split between the hydrolyzer and PM reactor, 37% formalin, and DSIDA1. No NMG was added after the hydrolysis step, and seed crystals were not added. Following completion of the feeds, the reactor contents were allowed to mix at 105° C. for approximately 21 hours before sampling. […] Thus, it is believed, without being bound to any particular theory, that as the PM reaction progresses, supersaturation increase is a function of both PMIDA in situ generation and a decreasing solubility limit.
A fifth experiment was designed to determine the equilibrium mother liquor PMIDA concentration just prior to the crystallization event when a 75:25 DSIDA feed split is used. In addition to the feed split, the experiment used 37% formalin and DSIDA1. No NMG was added after the hydrolysis step, and seed crystals were not added. Mother liquor samples were removed during the course of the experiment. […]

[3] = PMIDA solubility in acidified PM mother liquor; type: physicochemical; settings: commercial batch mother liquor acidified with HCl
Method: For instance, mother liquor recovered at the end of a commercial scale batch was acidified with HCl in order to have an HCl content approximately equivalent to that found at the end of the PM reaction.
The data in Table 9B indicate that low levels of supersaturation will relieve over time. […] Solubility experiments indicate that the PMIDA solubility limit in acidified ML at 105° C. is between about 6.4 wt % and about 8.5 wt %. As noted in Tables 9A and 9B, equilibrium samples were also taken at various temperatures.

| Compound | solubility limit in PMIDA mother liquor [1] | Equilibrium PMIDA in PM mother liquor (wt %) ([2]; 40% of total formalin added to PM reactor, 105 °C) [% wt %] | Equilibrium PMIDA in PM mother liquor (wt %) ([2]; 70% of total formalin added to PM reactor, 105 °C) | Equilibrium PMIDA in PM mother liquor (wt %) ([2]; 100% of total formalin added to PM reactor, 105 °C) | PM mother liquor PMIDA concentration, averaged equilibrium data ([2]; 105 °C, average of interrupted runs 1 and 2) | ML PMIDA (wt %), equilibrium ([2]; PM interrupted run 1 (about 40% of feeds, seeded, NMG spike), equilibrium at 50 °C) [wt %] | ML PMIDA (wt %), equilibrium ([2]; PM interrupted run 1 (about 40% of feeds, seeded, NMG spike), equilibrium at 75 °C) [wt %] | ML PMIDA (wt %), equilibrium ([2]; PM interrupted run 1 (about 40% of feeds, seeded, NMG spike), equilibrium at 105 °C) [wt %] | ML PMIDA (wt %), equilibrium ([2]; PM interrupted run 2 (about 40% of feeds, no seed, no NMG), equilibrium at 50 °C) [wt %] | ML PMIDA (wt %), equilibrium ([2]; PM interrupted run 2 (about 40% of feeds, no seed, no NMG), equilibrium at 75 °C) [wt %] | ML PMIDA (wt %), equilibrium ([2]; PM interrupted run 2 (about 40% of feeds, no seed, no NMG), equilibrium at 105 °C) [wt %] | ML PMIDA (wt %), equilibrium ([2]; PM interrupted run 5, 75:25 DSIDA split, 84.0% of total formalin added, equilibrium at 105 °C, about 19 hours) [wt %] | PMIDA Solubility in PM Mother Liquor, PM (wt %) ([3]; 20 °C) | PMIDA Solubility in PM Mother Liquor, PM (wt %) ([3]; 50 °C) | PMIDA Solubility in PM Mother Liquor, PM (wt %) ([3]; 70 °C) | PMIDA Solubility in PM Mother Liquor, PM (wt %) ([3]; 90 °C) | PMIDA Solubility in PM Mother Liquor, PM (wt %) ([3]; 115 °C) |
| --- | --- | --- | --- | --- | --- | --- | --- | --- | --- | --- | --- | --- | --- | --- | --- | --- | --- |
| CN(CC(=O)O)CP(=O)(O)O [NMG, N-methyl-N-(phosphonomethyl)glycine] | about 3.6 wt % |  |  |  |  |  |  |  |  |  |  |  |  |  |  |  |  |
| O=C(O)CN(CC(=O)O)CP(=O)(O)O [PMIDA, N-(phosphonomethyl)iminodiacetic acid] |  | 12.6 | 8.6 wt % and 8.6% wt % | 5.9 wt % and 5.9% wt % | about 16.4 wt % | 3.3 | 5.3 | 12.4 | 4.0 | 8.1 | 13.8 | 14.4 | 0.52 | 1.26 | 2.29 | 4.15 | 8.72 |
| O=C(O)CN(CP(=O)(O)O)CP(=O)(O)O [glyphosine, N,N-bis-(phosphonomethyl)glycine] | about 3.9 wt % |  |  |  |  |  |  |  |  |  |  |  |  |  |  |  |  |
